Where “and” joins values, the source holds several entries; their conditions need not be identical. Identical values can stand only once.
Legend:
[1] = molecular target: T1, Beta-galactoside alpha-2,6-sialyltransferase 1 (Homo sapiens) (UniProt P15907); test: Inhibition of human recombinant ST6Gal-1 assessed as trisaccharide formation using CMP-Neu5Ac and p-nitrophenyl LacNAc as donar and acceptor at 10 uM by RP-HPLC analysis
T1 sequence (whole entry): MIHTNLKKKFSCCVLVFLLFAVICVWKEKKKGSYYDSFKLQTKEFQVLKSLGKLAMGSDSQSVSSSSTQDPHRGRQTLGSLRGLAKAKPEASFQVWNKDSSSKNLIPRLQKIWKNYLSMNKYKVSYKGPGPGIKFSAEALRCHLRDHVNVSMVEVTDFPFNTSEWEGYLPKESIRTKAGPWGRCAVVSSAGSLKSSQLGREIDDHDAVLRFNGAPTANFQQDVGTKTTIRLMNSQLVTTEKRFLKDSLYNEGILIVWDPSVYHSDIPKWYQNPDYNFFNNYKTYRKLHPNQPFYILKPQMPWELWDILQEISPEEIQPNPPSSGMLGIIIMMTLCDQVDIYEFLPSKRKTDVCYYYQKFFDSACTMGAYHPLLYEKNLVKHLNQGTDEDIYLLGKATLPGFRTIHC

[2] = molecular target: T2, Beta-galactoside alpha-2,6-sialyltransferase 1 (Homo sapiens, UniProt P15907); test: Competitive inhibition of human recombinant ST6Gal-1 using CMP-Neu5Ac and p-nitrophenyl LacNAc as donar and acceptor by Lineweaver-Burk double reciprocal plot analysis
T2 sequence (P15907 whole entry): T1 sequence (whole entry)

[3] = molecular target: T1, Beta-galactoside alpha-2,6-sialyltransferase 1 (Homo sapiens); test: Ratio of CMP-Neu5Ac Km to compound Ki for human recombinant ST6Gal-1
[4] = Inhibition of rat alpha-2,6-sialyltransferase

In the case of CC(=O)NC[C@@H]1C[C@@H](C(OP(=O)(O)OC[C@H]2O[C@@H](n3ccc(N)nc3=O)[C@H](O)[C@@H]2O)P(=O)(O)O)C[C@H]1OCc1ccccc1 (stereo partly drawn), the inhibition [1] is reported as 46.3% and 70.8%, the Ki [2] is reported as 865 nM and the Ratio [3] is reported as 48.1.
An inhibition [1] of 98.1%, a Ki [2] of 19 nM and a Ratio [3] of 2190 were found for Nc1ccn([C@@H]2O[C@H](COP(=O)(O)OC(c3cccc(Oc4ccccc4)c3)P(=O)(O)O)[C@@H](O)[C@H]2O)c(=O)n1 (stereo partly drawn) in this work.
A Ki [4] of 29 nM was found for CC(=O)N[C@H]1[C@H](Oc2ccccc2)OC(C(OP(=O)(O)OC[C@H]2O[C@@H](n3ccc(N)nc3=O)[C@H](O)[C@@H]2O)P(=O)(O)O)=C[C@@H]1O (stereo partly drawn) in this work.
An inhibition [1] of 12.8% was found for Nc1ccn([C@@H]2O[C@H](COP(=O)(O)OC(C3CCCC3)P(=O)(O)O)[C@@H](O)[C@H]2O)c(=O)n1 (stereo in doubt; 2l) in this work.
A Ki [2] of 5850 nM was found for Nc1ccn([C@@H]2O[C@H](COP(=O)(O)OC(C3CCCC3)P(=O)(O)O)[C@@H](O)[C@H]2O)c(=O)n1 (stereo in doubt; 2s) [listing 1 of 2 here] in this work.
An inhibition [1] of 43.2% and a Ratio [3] of 7.1 were found for Nc1ccn([C@@H]2O[C@H](COP(=O)(O)OC(C3CCCC3)P(=O)(O)O)[C@@H](O)[C@H]2O)c(=O)n1 (stereo in doubt; 2s) [listing 2 of 2 here] in this work.
An inhibition [1] of 13% was found for Nc1ccn([C@@H]2O[C@H](COP(=O)(O)OC([C@H]3C[C@@H](O)[C@@H](O)C3)P(=O)(O)O)[C@@H](O)[C@H]2O)c(=O)n1 (stereo in doubt; 3l) in this work.
An inhibition [1] of 31% was found for Nc1ccn([C@@H]2O[C@H](COP(=O)(O)OC([C@H]3C[C@@H](O)[C@@H](O)C3)P(=O)(O)O)[C@@H](O)[C@H]2O)c(=O)n1 (stereo in doubt; 3s) in this work.
An inhibition [1] of 9.99% was found for CC(=O)N[C@H]1C[C@H](C(OP(=O)(O)OC[C@H]2O[C@@H](n3ccc(N)nc3=O)[C@H](O)[C@@H]2O)P(=O)(O)O)C[C@H]1O (stereo in doubt; 4Sl) in this work.
A Ki [2] of 4310 nM was found for CC(=O)N[C@H]1C[C@H](C(OP(=O)(O)OC[C@H]2O[C@@H](n3ccc(N)nc3=O)[C@H](O)[C@@H]2O)P(=O)(O)O)C[C@H]1O (stereo in doubt; 4Ss) [listing 1 of 2 here] in this work.
An inhibition [1] of 50.3% and a Ratio [3] of 9.6 were found for CC(=O)N[C@H]1C[C@H](C(OP(=O)(O)OC[C@H]2O[C@@H](n3ccc(N)nc3=O)[C@H](O)[C@@H]2O)P(=O)(O)O)C[C@H]1O (stereo in doubt; 4Ss) [listing 2 of 2 here] in this work.
An inhibition [1] of 22.1% was found for CC(=O)N[C@H]1C[C@@H](C(OP(=O)(O)OC[C@H]2O[C@@H](n3ccc(N)nc3=O)[C@H](O)[C@@H]2O)P(=O)(O)O)C[C@H]1OCc1ccccc1 (stereo in doubt; 5Rl) in this work.
A Ki [2] of 1510 nM was found for CC(=O)N[C@H]1C[C@@H](C(OP(=O)(O)OC[C@H]2O[C@@H](n3ccc(N)nc3=O)[C@H](O)[C@@H]2O)P(=O)(O)O)C[C@H]1OCc1ccccc1 (stereo in doubt; 5Rs) [listing 1 of 2 here] in this work.
An inhibition [1] of 65.9% and a Ratio [3] of 27.6 were found for CC(=O)N[C@H]1C[C@@H](C(OP(=O)(O)OC[C@H]2O[C@@H](n3ccc(N)nc3=O)[C@H](O)[C@@H]2O)P(=O)(O)O)C[C@H]1OCc1ccccc1 (stereo in doubt; 5Rs) [listing 2 of 2 here] in this work.
A Ki [2] of 436 nM was found for CC(=O)N[C@H]1C[C@H](C(OP(=O)(O)OC[C@H]2O[C@@H](n3ccc(N)nc3=O)[C@H](O)[C@@H]2O)P(=O)(O)O)C[C@H]1OCc1ccccc1 (stereo in doubt; 5Sl) [listing 1 of 2 here] in this work.
An inhibition [1] of 75.3% and a Ratio [3] of 95.5 were found for CC(=O)N[C@H]1C[C@H](C(OP(=O)(O)OC[C@H]2O[C@@H](n3ccc(N)nc3=O)[C@H](O)[C@@H]2O)P(=O)(O)O)C[C@H]1OCc1ccccc1 (stereo in doubt; 5Sl) [listing 2 of 2 here] in this work.
A Ki [2] of 1630 nM was found for CC(=O)N[C@H]1C[C@H](C(OP(=O)(O)OC[C@H]2O[C@@H](n3ccc(N)nc3=O)[C@H](O)[C@@H]2O)P(=O)(O)O)C[C@H]1OCc1ccccc1 (stereo in doubt; 5Ss) [listing 1 of 2 here] in this work.
An inhibition [1] of 63.9% and a Ratio [3] of 25.6 were found for CC(=O)N[C@H]1C[C@H](C(OP(=O)(O)OC[C@H]2O[C@@H](n3ccc(N)nc3=O)[C@H](O)[C@@H]2O)P(=O)(O)O)C[C@H]1OCc1ccccc1 (stereo in doubt; 5Ss) [listing 2 of 2 here] in this work.
A Ki [2] of 28 nM was found for CC(=O)NC[C@@H]1CCC(OP(=O)(O)OC[C@H]2O[C@@H](n3ccc(N)nc3=O)[C@H](O)[C@@H]2O)(P(=O)(O)O)[C@H]1OCc1ccccc1 (stereo in doubt; 48l) [listing 1 of 2 here] in this work.
An inhibition [1] of 97.5% and a Ratio [3] of 1490 were found for CC(=O)NC[C@@H]1CCC(OP(=O)(O)OC[C@H]2O[C@@H](n3ccc(N)nc3=O)[C@H](O)[C@@H]2O)(P(=O)(O)O)[C@H]1OCc1ccccc1 (stereo in doubt; 48l) [listing 2 of 2 here] in this work.
A Ki [2] of 477 nM was found for CC(=O)NC[C@@H]1CCC(OP(=O)(O)OC[C@H]2O[C@@H](n3ccc(N)nc3=O)[C@H](O)[C@@H]2O)(P(=O)(O)O)[C@H]1OCc1ccccc1 (stereo in doubt; 48s) [listing 1 of 2 here] in this work.
An inhibition [1] of 74.1% and a Ratio [3] of 87.3 were found for CC(=O)NC[C@@H]1CCC(OP(=O)(O)OC[C@H]2O[C@@H](n3ccc(N)nc3=O)[C@H](O)[C@@H]2O)(P(=O)(O)O)[C@H]1OCc1ccccc1 (stereo in doubt; 48s) [listing 2 of 2 here] in this work.

— ChEMBL document CHEMBL3627711, “Highly Substituted Cyclopentane-CMP Conjugates as Potent Sialyltransferase Inhibitors” (J Med Chem, 2015)
